For one series, the system named is cells. The settings on record: cells treated with MLN8054; cited from earlier work.
A short description of series [1]: Single agent maximum tolerated dose in mice.
The next series deals with NCI-H69. The series is described as follows: NCI-H69 small cell lung cancer xenograft model.
The test system of another series is NCI-H82. The series is described as follows: NCI-H82 small cell lung cancer xenograft model.
The conditions of series [2]: mouse, in vivo.

The values that follow come from patent US10213436B2, “Methods of treating cancer using aurora kinase inhibitors” (Millennium Pharmaceuticals, Inc., priority 2012, dated 2019).

Each structure is given as a SMILES string. Read-outs that look alike come from different tables or passages of the source.

Method for NCI-H69: Procedure. […] Treatments began when tumors reached approximately 200 mm^3 following subcutaneous tumor implantation with NCI-H69 tumor fragments for all groups containing 10 female immunocompromised nu/nu mice per group. MLN8237 was tested at a dose of 20 mg/kg administered PO on a QIDx21-Q8Hx2 schedule and at doses of 20 and 10 mg/kg on a QIDx21 schedule. Paclitaxel was tested at doses of 30 and 15 mg/kg administered IV on a Q7Dx3 schedule. Each paclitaxel dose was combined with each MLN8237 dose on the QDx21 treatment schedule. In the combination treatment groups MLN8237 was administered first to the animals, followed immediately by the administration of paclitaxel. One group served as a vehicle-treated control group receiving PO treatment with the MLN8237 vehicle on a QIDx21 schedule.

Take `O=C(O)c1ccc(Nc2ncc3c(n2)-c2ccc(Cl)cc2C(c2c(F)cccc2F)=NC3)cc1` [MLN8054]: in the series on cells, the “cell fate after repeated defective mitotic divisions” value is on record as “undergo senescence” and the “chromosome content of treated cells” value is reported as “develop aneuploidy that increases over time”.

Turning to `CC[C@@]1(O)C(=O)OCc2c1cc1n(c2=O)Cc2cc3c(CN(C)C)c(O)ccc3nc2-1` [topotecan], the “single agent maximum tolerated dose” value in series [1] (IV) is on record as 1.5 mg/kg Q5D.

As to `CC(=O)O[C@H]1C(=O)[C@@]2(C)[C@H]([C@H](OC(=O)c3ccccc3)[C@]3(O)C[C@H](OC(=O)[C@H](O)[C@@H](NC(=O)c4ccccc4)c4ccccc4)C(C)=C1C3(C)C)[C@]1(OC(C)=O)CO[C@@H]1C[C@@H]2O` [paclitaxel], the “single agent maximum tolerated dose in mice” value in series [1] is 30 mg/kg QD. Further, the antitumor activity result with NCI-H69 (single agent paclitaxel 30 mg/kg (maximum tolerated dose)) is listed as “sustained cures”; in the series with NCI-H82 (single agent paclitaxel 15 mg/kg QW), “no antitumor activity”.

On to `COc1cc(Nc2ncc3c(n2)-c2ccc(Cl)cc2C(c2c(F)cccc2OC)=NC3)ccc1C(=O)[O-].O.[Na+]` [alisertib, sodium 4-{[9-chloro-7-(2-fluoro-6-methoxyphenyl)-5H-pyrimido[5,4-d][2]benzazepin-2-yl]amino}-2-methoxybenzoate monohydrate], for which the “single agent maximum tolerated dose in mice” value in series [2] is 20 mg/kg BID. In addition, the antitumor activity result with NCI-H69 (single agent alisertib 20 mg/kg BID (maximum tolerated dose)) is recorded as “prolonged regressions”; with NCI-H82 (single agent alisertib 10 mg/kg QD), “no antitumor activity”.
